Data set [1] concerns the target human soluble guanylate cyclase alpha 1 and beta 1 subunits (sGC) (Homo sapiens (Human), UniProt Q02108+Q02153). Kind of data set: sGC cellular activator assay (cGMP, HTRF), in the presence and absence of 50% human serum. The data set is classed as cell-based. The following applies: CHO cells stably expressing human sGC alpha 1/beta 1, preincubated with 40 microM ODQ; cGMP by HTRF; Table 2 does not state whether with or without 50% human serum. In short, it runs like this: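 First, CHO-sGC (human α1β1) cells get 1 h ODQ at 40 microM with IBMX and 0.1% BSA. Finally, cGMP is quantified by HTRF and EC50 computed.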
A general note: TR-FRET usually uses a lanthanide donor and a delayed reading to cut background.

Data set [2] is described as follows: Human liver microsome (HLM) metabolic stability assay. The following applies: human liver microsomes. The class given is in vitro ADME. The method, boiled down: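 Remaining parent measured by LC/MS/MS (ESI, MRM) at 5, 15, 30 and 60 min relative to 0 min. Incubation: 1 uM compound, HLMs, NADPH-started, 37° C., 60 min total, single replicate. Slope of ln(% remaining) gives t1/2 = 0.693/slope, then CLint, CLh and % Qh.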

The next data set can be described thus: physchem. The following applies: kinetic from dmso stock.
Setting [3] is: pH 2.2, aqueous buffer, Solubility (pH 2.2).
Where [4] appears, read: pH 4.5, aqueous buffer, Solubility (pH 4.5).
[5] abbreviates: pH 6.8, aqueous buffer, Solubility (pH 6.8).

pEC50: −log10 of the molar value. In brackets after ≈: the same amount, converted by molar mass.

Sequence of human soluble guanylate cyclase alpha 1 and beta 1 subunits (sGC) (Q02108 whole entry partner): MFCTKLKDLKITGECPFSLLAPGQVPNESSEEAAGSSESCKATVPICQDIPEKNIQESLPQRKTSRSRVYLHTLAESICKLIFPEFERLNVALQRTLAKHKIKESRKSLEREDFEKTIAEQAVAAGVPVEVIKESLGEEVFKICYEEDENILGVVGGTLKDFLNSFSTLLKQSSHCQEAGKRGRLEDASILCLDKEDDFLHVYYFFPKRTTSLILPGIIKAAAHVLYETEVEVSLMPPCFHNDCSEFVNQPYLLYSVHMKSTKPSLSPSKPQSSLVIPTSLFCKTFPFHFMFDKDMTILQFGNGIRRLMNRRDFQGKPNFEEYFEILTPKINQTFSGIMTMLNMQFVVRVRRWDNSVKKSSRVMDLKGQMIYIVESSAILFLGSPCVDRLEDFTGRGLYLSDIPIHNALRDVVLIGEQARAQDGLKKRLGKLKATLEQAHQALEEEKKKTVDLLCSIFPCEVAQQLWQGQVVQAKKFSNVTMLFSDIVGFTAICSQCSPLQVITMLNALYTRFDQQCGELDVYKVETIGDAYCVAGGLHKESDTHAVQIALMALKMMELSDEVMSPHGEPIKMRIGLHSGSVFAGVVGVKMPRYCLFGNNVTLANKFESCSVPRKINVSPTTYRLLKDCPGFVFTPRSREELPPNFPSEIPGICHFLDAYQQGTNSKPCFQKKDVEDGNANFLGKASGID
Sequence of human soluble guanylate cyclase alpha 1 and beta 1 subunits (sGC) (Q02153 whole entry): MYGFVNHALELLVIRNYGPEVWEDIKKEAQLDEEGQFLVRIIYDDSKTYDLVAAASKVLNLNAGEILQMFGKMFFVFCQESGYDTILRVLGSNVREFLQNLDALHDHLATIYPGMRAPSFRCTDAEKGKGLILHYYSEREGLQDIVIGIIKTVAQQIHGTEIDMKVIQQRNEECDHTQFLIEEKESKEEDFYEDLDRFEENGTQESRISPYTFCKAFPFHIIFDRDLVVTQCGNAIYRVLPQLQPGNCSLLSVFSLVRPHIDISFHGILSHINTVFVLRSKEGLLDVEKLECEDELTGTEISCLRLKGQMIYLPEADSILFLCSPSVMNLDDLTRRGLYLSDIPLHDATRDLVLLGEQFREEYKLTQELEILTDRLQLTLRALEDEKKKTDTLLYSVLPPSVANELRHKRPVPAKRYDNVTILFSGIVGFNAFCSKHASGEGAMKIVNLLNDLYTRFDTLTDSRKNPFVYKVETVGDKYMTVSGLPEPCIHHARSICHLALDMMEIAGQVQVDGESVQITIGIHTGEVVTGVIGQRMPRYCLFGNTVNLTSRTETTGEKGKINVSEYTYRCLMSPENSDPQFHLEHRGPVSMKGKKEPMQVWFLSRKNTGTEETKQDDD
Method for physchem: Solubility is measured by the following method.
100 uL, 10 mM DMSO stock solution of each compound is prepared in a 96 well plate format. The experiment is done in single determination at 3 pH values (2.2, 4.5 and 6.8). For each pH and one reference, 40 uL of each compound is needed.
McIlvaine pH 2.2: To 2.076 g citric acid monohydrate and 0.043 g Na2HPO4×2H2O add 100 ml deionized water
McIlvaine pH 4.5: To 1.166 g citric acid monohydrate and 1.585 g Na2HPO4×2H2O add 100 ml deionized water
McIlvaine pH 6.8: To 0.476 g citric acid monohydrate and 2.753 g Na2HPO4×2H2O add 100 ml deionized water
With a suitable liquid handling device (Multipette® or a liquid handler) 390 uL of each buffer solution and 10 uL of compound is added to each well of a 96 deep well plate. The plates are covered firmly and shaken for 24 h on an over head shaker (at 54 RPM) at room temperature. The DMSO content in the final buffer is 2.5% v/v.
After 24 h the plates are centrifuged to remove droplets on the lid before opening (for ˜5 min at 2500 RPM).
The filtration is done under vacuum with Millipore 96 well filter plate. Filtrate is collected in a deep well plate and transferred to a suitable plate for UPLC analysis.
The reference plate is prepared by adding 10 uL of compound to 390 uL of 50:50 acetonitrile/water in a 96 deep well plate and transferred to a suitable plate for UPLC analysis. Wells are checked visually for precipitation, any presence noted under comments in reported results.
The samples are measured with UPLC-UV using the chromatographic method described below.
Waters Empower®2 software is used for generating Sample Sets (according to the plate layout), Sample Set Methods and Instrument Methods.
One Sample Set comprises the methods for three 96 well plates (one reference plate and two sample plates, and includes one Sample Set Method and one Instrument Method).
Data Processing and Analysis
The UV chromatograms collected at 254 nm are integrated and processed.
It is assumed that the compound is completely dissolved in the reference solution (50:50 acetonitrile/water)

As for `COCc1cc(COc2c(C)cccc2-c2cccc(N3C[C@@H]4C[C@]4(C(=O)O)[C@H]3COC)n2)cc2c1CN(C1COC1)CC2` [Compound 281], in data set [1], the negative logarithm of the EC50 (pEC50) is 6.57. In addition, the “Metabolic stability (Qh %), % hepatic blood flow” value (“Metabolic stability (Qh %)” below) in data set [2] is reported as 25%. The results for the solubility at 24 h in the data set “physchem” (setting [3]), in “physchem” (setting [4]) and in “physchem” (setting [5]) were 120 µg/mL (≈ 200 µM), 87.4 µg/mL (≈ 146 µM) and 83.1 µg/mL (≈ 139 µM), respectively.

With `COC[C@H]1N(c2cccc(-c3cccc(C)c3OCc3cc(C)c4c(c3)CCN(C3COC3)C4)n2)C[C@@H]2C[C@@]21C(=O)O` [Compound 49], the pEC50 in data set [1] is 7.92. For the same compound, the “Metabolic stability (Qh %)” value in data set [2] is under 24%. Moreover, the solubility at 24 h is 120 µg/mL (≈ 211 µM) in the data set “physchem” (setting [3]), 95 µg/mL (≈ 167 µM) in “physchem” (setting [4]) and 82 µg/mL (≈ 144 µM) in “physchem” (setting [5]).

With `COC[C@H]1N(c2cccc(-c3cccc(F)c3OCc3cc(C)c4c(c3)CCN(C3CCOCC3)C4)n2)C[C@@H]2C[C@@]21C(=O)O` [Compound 213], the pEC50 in data set [1] was 6.87. Also, the “Metabolic stability (Qh %)” value in data set [2] was under 24%. Also, the solubility at 24 h in “physchem” (setting [3]) was 144 µg/mL (≈ 239 µM); in “physchem” (setting [4]), 109 µg/mL (≈ 181 µM); in the data set “physchem” (setting [5]), 81.3 µg/mL (≈ 135 µM).

In data set [1], `Cc1cccc(-c2cccc(N3C[C@@H]4C[C@]4(C(=O)O)C3)n2)c1OCc1cc(C#N)c2c(c1)CCN(C1COC1)C2` [Compound 29] gave a pEC50 of 7.74. Also, the “Metabolic stability (Qh %)” value in data set [2] is recorded as under 24%. Also, the values for the solubility at 24 h in the data set “physchem” (setting [3]), in the data set “physchem” (setting [4]) and in the data set “physchem” (setting [5]) were 110 µg/mL (≈ 205 µM), 76 µg/mL (≈ 142 µM) and 79 µg/mL (≈ 147 µM), respectively.

As for `CCOC[C@H]1N(c2cccc(-c3cccc(C)c3OCc3cc(C)c4c(c3)CCN(C3CCOCC3)C4)n2)C[C@@H]2C[C@@]21C(=O)O` [Compound 315], in data set [1], the pEC50 was 7.74. Also, in data set [2], the “Metabolic stability (Qh %)” value is reported as under 24%. Further, the figures for the solubility at 24 h in the data set “physchem” (setting [3]), in “physchem” (setting [4]) and in “physchem” (setting [5]) were 137 µg/mL (≈ 224 µM), 135 µg/mL (≈ 221 µM) and 119 µg/mL (≈ 195 µM), respectively.

The compound `CCO[C@H]1CN(c2nc(-c3cc(C)ccc3OCc3cc4c(c(OC)c3)CN(C3CCOCC3)CC4)cs2)CC[C@H]1C(=O)O` [Compound 233] showed a pEC50 in data set [1] of 6.72. Further, the “Metabolic stability (Qh %)” value in data set [2] is under 24%. Further, the solubility at 24 h in the data set “physchem” (setting [3]) is 135 µg/mL (≈ 217 µM); in “physchem” (setting [4]), 124 µg/mL (≈ 200 µM); in the data set “physchem” (setting [5]), 122 µg/mL (≈ 197 µM).

`COC[C@H]1N(c2cccc(-c3cccc(C(F)(F)F)c3OCc3cc(C)c4c(c3)CCN(C3COC3)C4)n2)C[C@@H]2C[C@@]21C(=O)O` [Compound 227] had a pEC50 in data set [1] of 8.05. Besides, the “Metabolic stability (Qh %)” value in data set [2] amounted to 30%. In addition, the solubility at 24 h in the data set “physchem” (setting [3]) is 142 µg/mL (≈ 228 µM); in “physchem” (setting [4]), 128 µg/mL (≈ 205 µM); in the data set “physchem” (setting [5]), 138 µg/mL (≈ 221 µM).

Regarding `Cc1ccc(OCc2ccc3c(c2)CCN(C2CCOCC2)C3=O)c(-c2csc(N3CC[C@@]4(C(=O)O)C[C@H]4C3)n2)c1` [Compound 192, (1R,6S)-3-(4-{5-Methyl-2-[1-oxo-2-(tetrahydro-pyran-4-yl)-1,2,3,4-tetrahydro-isoquinolin-6-ylmethoxy]-phenyl}-thiazol-2-yl)-3-aza-bicyclo[4.1.0]heptane-6-carboxylic acid], the pEC50 in data set [1] was 7.54. Moreover, the “Metabolic stability (Qh %)” value in data set [2] is on record as under 24%. Further, the solubility at 24 h in the data set “physchem” (setting [3]) is 48 µg/mL (≈ 83.7 µM); in the data set “physchem” (setting [4]) it was under 0.1 µg/mL; in “physchem” (setting [5]), 9.2 µg/mL (≈ 16 µM).

In the case of `Cc1ccc(OCc2cc(C)c3c(c2C)CCN(C2CCOC2)C3)c(-c2csc(N3CC[C@@]4(C(=O)O)C[C@H]4C3)n2)c1` (some centres unmarked) [Compound 129], in data set [1], the pEC50 is 8.22. Also, the “Metabolic stability (Qh %)” value in data set [2] is under 24%. The solubility at 24 h in “physchem” (setting [3]) is 120 µg/mL (≈ 209 µM); in the data set “physchem” (setting [4]), 7.7 µg/mL (≈ 13.4 µM); in “physchem” (setting [5]) it was 0.49 µg/mL (≈ 0.854 µM).

As to `Cc1ccc(OCc2cc(C)c3c(c2C)CCN(C2COC2)C3)c(-c2cccc(N3C[C@@H]4C[C@]4(C(=O)O)C3)n2)c1` [Compound 40], the pEC50 in data set [1] is 7.42. In addition, in data set [2], the “Metabolic stability (Qh %)” value is recorded as under 24%. Also, the figures for the solubility at 24 h in the data set “physchem” (setting [3]), in “physchem” (setting [4]) and in the data set “physchem” (setting [5]) were 98 µg/mL (≈ 182 µM), 79 µg/mL (≈ 146 µM) and 52 µg/mL (≈ 96.4 µM), respectively.

The term pEC50 denotes −log10 of the EC50, conventionally taken in molar units. One may read the solubility as the dissolved amount per volume that the medium holds. High values mean a readily soluble substance, low ones a poorly soluble substance.

These data come from patent publication US9353090B2, “Heterocyclic carboxylic acids as activators of soluble guanylate cyclase” (Boehringer Ingelheim International GmbH, priority 2014, dated 2016).
